Laboratory results reported in patent publication US11434227B2, “Broad spectrum antibacterial activity of novel bisbenzimidazoles targeting topoisomerase IA and the synergistic composition of bisbenzimidazole with efflux pump inhibitors against pathogenic bacteria” (Jawaharlal Nehru University (JNU), priority 2016, dated 2022).
In brackets after ≈: the same amount, converted by molar mass.

Assays:
[1] = test system: Salmonella typhimurium (St412); experiment: Susceptibility (MIC50/MIC90), broth microdilution; conditions: Salmonella enterica
Experimental: (§1) MICs were determined by the broth microdilution method according to CLSI methods (Clinical and Laboratory Standards Institute, 2005). Inoculants were incubated at 37° C. on cation adjusted Mueller Hinton (MH) Broth for 18 to 24 h. Compound were dissolved in media to 10 doubling dilutions from 128 to 0.125 μg/mL. All the bacterial strains were grown in 96 well plate with low evaporation lid (Falcon, Becton Dickinson) in presence of derivatives of benzimidazoles at 0.125, 0.25, 0.5, 1, 2, 4, 8, 16, 32, 64, 128, 256 μg/mL concentrations. […] Plates were read by Tecan Micro-plate Reader at 600 nm.

[2] = test system: E. coli 360^R; experiment: Susceptibility (MIC, PAE, MBC), broth microdilution; conditions: Escherichia coli
Experimental: as §1

[3] = test system: Acinetobacter baumannii (AB312); experiment: Susceptibility (MIC50/MIC90), broth microdilution
Experimental: as §1

[4] = test system: E. coli K12 mutant ΔemrA; experiment: Susceptibility of E. coli K12 and mutants (MIC90); conditions: Escherichia coli
Experimental: as §1

[5] = test system: E. coli 81^R; experiment: Susceptibility (MIC, PAE, MBC), broth microdilution; conditions: Escherichia coli
Experimental: as §1

[6] = test system: E. coli ATCC 25922; experiment: Neutropenic thigh infection model
Experimental: The neutropenic mice thigh infection model, fully described by. Craig, was used in this study. Female Balb/c mice (6 mice per dosing group) weighing 20-25 g were rendered neutropenic with 2 intraperitoneal injections of cyclophosphamide (150 mg/kg of body weight 4 days prior to bacterial inoculation and 100 mg/kg 1 day before inoculation) 2 h prior to bacterial inoculation. […] Bacteria were injected into the right thigh of each mouse at time zero. […] Neutropenia was defined as an absolute neutrophil count of 500 polymorphonuclear leukocytes/cm^3 of blood. The bacterial suspension was diluted to a concentration of 10^6 CFU/mL with normal saline. Then, 0.1 mL of the bacterial suspension was injected into each posterior thigh muscle 2 h after the second dose of cyclophosphamide was administered. […] Twenty-four hours after drug treatment was begun, the mice were humanely sacrificed. Right thigh muscles from each mouse were aseptically collected, homogenized and serially diluted 1:10 in phosphate buffer saline, and processed for quantitative cultures.

[7] = test system: E. coli 85^R; experiment: Susceptibility (MIC, PAE, MBC), broth microdilution; conditions: Escherichia coli
Experimental: as §1

[8] = test system: Salmonella typhimurium (MTCC 1251); experiment: Susceptibility (MIC50/MIC90), broth microdilution; conditions: Salmonella enterica
Experimental: as §1

[9] = test system: Acinetobacter baumannii (MTCC1920); experiment: Susceptibility (MIC50/MIC90), broth microdilution
Experimental: as §1

[10] = test system: E. coli 72^R; experiment: Susceptibility (MIC, PAE, MBC), broth microdilution; conditions: Escherichia coli
Experimental: as §1

[11] = test system: A. baumannii (AB387); experiment: HN12b in combination with efflux pump inhibitors (CB method, FICI); conditions: for FICI / Interpretation: A. baumannii (AB387)
Experimental: (§2) 96-well microtiter plates containing MIC25 concentrations of the Efflux pump inhibitor (CCCP, PAβN) and HN12b antimicrobial drugs alone and in CB combination were used. The MICs of the individual drugs HN12b, PAβN and CCCP (0.25 to 128 μg/ml) and of the combinations were determined using the broth microdilution technique as recommended by the CLSI. Briefly, the broth microdilution plates were inoculated with each test organism to yield the appropriate density (10^5 CFU/ml) in 100 μl Mueller-Hinton broth (MHB) and incubated for 24 h at 37° C. in ambient air. One well with no antibiotic was used as a positive growth control on each plate. Plates were read for visual turbidity, and results were recorded after 24 h of incubation at 37° C. in ambient air by using a magnifying mirror reader, as turbidity in wells indicated growth of the microorganism. The MIC was determined as the well in the microtiter plate with the lowest drug concentration at which there was no visible growth. […] MICAB was defined as the MIC of drug A in the presence of drug B; MICBA was defined as the MIC of drug B in the presence of drug A.
(§3) The fractional inhibitory concentration index (FICI) was calculated for each antibiotic in each combination by using the following formula: FICA+FICB=FICI, where FICA equals the MIC of drug A in combination divided by the MIC of drug A alone and FICB equals the MIC of drug B in combination divided by the MIC of drug B alone. The FICIs were interpreted as follows: FICI of ≤0.5 will correspond to synergy; FICI of >0.5 to ≤1 will correspond to additivity; FICI of >1 to ≤4 will correspond to no interaction (indifference), and FICI of >4 will correspond antagonism.

[12] = test system: Staphylococcus sp. (982); experiment: Susceptibility (MIC50/MIC90), broth microdilution
Experimental: as §1

[13] = test system: Pseudomonas aeruginosa (Ps162); experiment: Susceptibility (MIC50/MIC90), broth microdilution
Experimental: as §1

[14] = test system: E. coli K12 mutant ΔTopIB; experiment: Susceptibility of E. coli K12 and mutants (MIC90); conditions: Escherichia coli
Experimental: as §1

[15] = test system: Staphylococcus sp. (1016); experiment: Susceptibility (MIC50/MIC90), broth microdilution; conditions: Staphylococcus
Experimental: as §1

[16] = test system: Pseudomonas aeruginosa (MTCC1688); experiment: Susceptibility (MIC50/MIC90), broth microdilution
Experimental: as §1

[17] = test system: Escherichia coli 385; experiment: Susceptibility (MIC50/MIC90), broth microdilution
Experimental: as §1

[18] = test system: E. coli ATCC25922; experiment: HN12b in combination with efflux pump inhibitors (CB method, FICI); conditions: for FICI / Interpretation: E. coli ATCC25922
Experimental: as §2, §3

[19] = target: E. coli Topoisomerase IA (EcTopoIA) (Escherichia coli, UniProt P06612); experiment: Topoisomerase IA relaxation inhibition assay; assay type: biochemical; conditions: compared to DMA
Chain of E. coli Topoisomerase IA (EcTopoIA) (P06612 whole entry): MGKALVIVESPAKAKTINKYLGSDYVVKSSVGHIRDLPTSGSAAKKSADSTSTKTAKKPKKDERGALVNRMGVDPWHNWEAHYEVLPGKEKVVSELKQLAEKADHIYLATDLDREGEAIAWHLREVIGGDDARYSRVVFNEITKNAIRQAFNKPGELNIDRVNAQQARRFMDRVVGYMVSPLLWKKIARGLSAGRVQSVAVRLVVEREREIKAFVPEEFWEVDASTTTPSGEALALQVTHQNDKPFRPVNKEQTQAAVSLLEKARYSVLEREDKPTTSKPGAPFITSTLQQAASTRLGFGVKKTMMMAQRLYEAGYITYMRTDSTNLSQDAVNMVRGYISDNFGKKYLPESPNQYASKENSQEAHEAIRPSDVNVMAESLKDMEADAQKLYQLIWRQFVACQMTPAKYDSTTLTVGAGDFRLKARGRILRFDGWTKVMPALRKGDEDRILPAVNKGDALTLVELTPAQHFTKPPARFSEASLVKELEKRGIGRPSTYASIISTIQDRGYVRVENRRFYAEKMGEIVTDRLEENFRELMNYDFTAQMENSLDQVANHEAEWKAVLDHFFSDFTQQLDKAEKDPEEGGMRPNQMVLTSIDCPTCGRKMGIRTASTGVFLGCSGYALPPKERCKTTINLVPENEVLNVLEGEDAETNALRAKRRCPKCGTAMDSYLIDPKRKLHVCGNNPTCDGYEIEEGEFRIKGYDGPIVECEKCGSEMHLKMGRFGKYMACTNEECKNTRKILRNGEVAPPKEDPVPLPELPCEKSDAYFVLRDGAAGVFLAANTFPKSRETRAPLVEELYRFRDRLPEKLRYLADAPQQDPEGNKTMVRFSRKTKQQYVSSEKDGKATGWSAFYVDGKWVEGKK
Experimental: E. coli Topoisomerase IA (EcTopoIA) purified protein was diluted in buffer (10 mM Tris-HCl pH 8.0, 50 mM NaCl, 0.1 mg/mL gelatin, 0.5 mM MgCl2). Compounds were added in concentrations 1, 5, 10, 25 and 50 μM to 10 ng of the diluted enzyme present in 20 μL reaction volume. 500 ng of supercoiled pHOT plasmid DNA purified by Qiagen Maxiprep Kit was added. The mixture was incubated at 37° C. for 30 min before termination of the reaction and analysed by agarose gel electrophoresis without Ethidium bromide. The gels were then stained with ethidium bromide which was further photographed over UV transilluminator and analysed by performing densitometry.
Mechanism of inhibition was determined by performing relaxation assay in three different conditions. First, relaxation assay was done with increasing concentrations of Mg^2+ from 0 to 50 mM to find out optimum concentration of Mg^2+ required by EcTopo 1A. Second, relaxation assay was performed with increasing concentration of Mg^2+ in the presence of 5 μM compound and third, reaction we have increased the concentration of compound from 5 to 100 μM in a buffer with 25 mM of MgCl2.

[20] = test system: Enterococcus sp.(1150); experiment: Susceptibility (MIC50/MIC90), broth microdilution
Experimental: as §1

[21] = test system: E. coli 151^R; experiment: Susceptibility (MIC, PAE, MBC), broth microdilution; conditions: Escherichia coli
Experimental: as §1

[22] = test system: Escherichia coli 392; experiment: Susceptibility (MIC50/MIC90), broth microdilution
Experimental: as §1

[23] = test system: Enterococcus sp. (1367); experiment: Susceptibility (MIC50/MIC90), broth microdilution
Experimental: as §1

[24] = test system: A. baumannii (MTCC1920); experiment: HN12b in combination with efflux pump inhibitors (CB method, FICI)
Experimental: as §2, §3

[25] = A. baumannii (MTCC1920), HN12b + CCCP

Q: `CCCN1CCN(c2nc3ccc(-c4nc5ccccc5[nH]4)cc3[nH]2)CC1` [HN12b, 2′-(4-propylpiperazine-1-yl)-1H, 3′H-2,5′-bibenzimidazole] was tested. Which MIC50 [1] did it give?
A: < 0.25 µg/mL

Q: And the MIC90 [1]?
A: < 0.25 µg/mL

Q: And the MBC [2]?
A: 2 µg/mL (≈ 5.55 µM)

Q: What about the MIC50 [2] of the same molecule?
A: 1 µg/mL (≈ 2.77 µM)

Q: What about the MIC90 [2] of the same molecule?
A: 1.6 µg/mL (≈ 4.44 µM)

Q: What about the MIC50 [3] of the same molecule?
A: 3.8 µg/mL (≈ 10.5 µM)

Q: What about the MIC90 [3] of the same molecule?
A: 3.8 µg/mL (≈ 10.5 µM)

Q: And the MIC90 [4]?
A: 5.8 µg/mL (≈ 16.1 µM)

Q: And the MBC [5]?
A: 2 µg/mL (≈ 5.55 µM)

Q: And the MIC50 [5]?
A: 1 µg/mL (≈ 2.77 µM)

Q: What about the MIC90 [5] of the same molecule?
A: 1.6 µg/mL (≈ 4.44 µM)

Q: And the in vivo efficacy ([6]; Neutropenia thigh model, E. coli ATCC 25922)?
A: good in vivo efficacy

Q: And the “Dose at 1 log reduction” value ([6]; Neutropenic Thigh, ATCC25922)?
A: 3 mg/kg/bw/day

Q: And the “Dose at 3 log reduction” value ([6]; Neutropenic Thigh, ATCC25922)?
A: 5 mg/kg/bw/day

Q: What about the MBC [7] of the same molecule?
A: 2 µg/mL (≈ 5.55 µM)

Q: And the MIC50 [7]?
A: 1 µg/mL (≈ 2.77 µM)

Q: And the MIC90 [7]?
A: 1.7 µg/mL (≈ 4.72 µM)

Q: And the MIC50 [8]?
A: < 0.25 µg/mL

Q: What about the MIC90 [8] of the same molecule?
A: < 0.25 µg/mL

Q: What about the MIC50 [9] of the same molecule?
A: > 128 µg/mL

Q: What about the MIC90 [9] of the same molecule?
A: 128 µg/mL (≈ 355 µM)

Q: And the MIC90 [10]?
A: 3.1 µg/mL (≈ 8.6 µM)

Q: And the FICI ([11]; HN12b + CCCP)?
A: 0.2

Q: And the Interpretation ([11]; HN12b + CCCP)?
A: Synergy (FICI of ≤0.5 will correspond to synergy)

Q: What about the FICI ([11]; HN12b + PAβN) of the same molecule?
A: 0.2

Q: What about the Interpretation ([11]; HN12b + PAβN) of the same molecule?
A: Synergy (FICI of ≤0.5 will correspond to synergy)

Q: And the MIC90 ([11]; Acinetobacter baumannii)?
A: 8 µg/mL

Q: And the MIC50 [12]?
A: 0.44 µg/mL (≈ 1.22 µM)

Q: What about the MIC90 [12] of the same molecule?
A: 7.44 µg/mL (≈ 20.6 µM)

Q: And the MIC50 [13]?
A: 2.94 µg/mL (≈ 8.16 µM)

Q: And the MIC90 [13]?
A: 5.94 µg/mL (≈ 16.5 µM)

Q: What about the MIC90 [14] of the same molecule?
A: 3.8 µg/mL (≈ 10.5 µM)

Q: What about the MIC50 [15] of the same molecule?
A: 0.57 µg/mL (≈ 1.58 µM)

Q: And the MIC90 [15]?
A: 4.57 µg/mL (≈ 12.7 µM)

Q: And the MIC50 [16]?
A: > 128 µg/mL

Q: And the MIC90 [16]?
A: 128 µg/mL (≈ 355 µM)

Q: What about the MIC50 [17] of the same molecule?
A: 1.5 µg/mL (≈ 4.16 µM)

Q: And the MIC90 [17]?
A: 3.3 µg/mL (≈ 9.15 µM)

Q: And the FICI ([18]; HN12b + CCCP)?
A: 0.3

Q: What about the Interpretation ([18]; HN12b + CCCP) of the same molecule?
A: Synergy (FICI of ≤0.5 will correspond to synergy)

Q: And the FICI ([18]; HN12b + PAβN)?
A: 0.1

Q: What about the Interpretation ([18]; HN12b + PAβN) of the same molecule?
A: Synergy (FICI of ≤0.5 will correspond to synergy)

Q: And the MIC90 ([18]; Escherichia coli, ATCC25922)?
A: 14 µg/mL

Q: What about the “Topoisomerase Inhibition activity” value [19] of the same molecule?
A: improved Topoisomerase Inhibition activity as compared to DMA

Q: And the MIC50 [20]?
A: 0.25 µg/mL (≈ 0.694 µM)

Q: And the MIC90 [20]?
A: 13.2 µg/mL (≈ 36.8 µM)

Q: What about the MBC [21] of the same molecule?
A: 2 µg/mL (≈ 5.55 µM)

Q: And the MIC50 [21]?
A: 1 µg/mL (≈ 2.77 µM)

Q: What about the MIC90 [21] of the same molecule?
A: 1.7 µg/mL (≈ 4.72 µM)

Q: What about the MIC50 [22] of the same molecule?
A: 17.9 µg/mL (≈ 49.7 µM)

Q: And the MIC90 [22]?
A: 64.5 µg/mL (≈ 179 µM)

Q: And the MIC50 [23]?
A: < 0.25 µg/mL

Q: What about the MIC90 [23] of the same molecule?
A: 11.4 µg/mL (≈ 31.5 µM)

Q: What about the FICI [24, 25] of the same molecule?
A: 0.5

Q: What about the Interpretation [24, 25] of the same molecule?
A: Synergy (FICI of ≤0.5 will correspond to synergy)

Q: And the FICI ([24]; A. baumannii (MTCC1920), HN12b + PAβN)?
A: 0.9

Q: And the MIC90 ([24]; Acinetobacter baumannii, MTCC1920)?
A: > 128 µg/mL
